Values quoted from earlier work as cited in patent publication US20120064058A1, “COMPOSITIONS FOR PROTEIN-BASED DIETARY PRODUCTS” (ITALFARMACIA SRL, priority 2008, published 2012).

Columns and labels:
[1] = compared with untreated diabetic rats

NCC(=O)O [Glycine]
expression of O-acetyl sialic acid in brain vessels (diabetic rats; [1]): diminished expression | incidence of opacity in lens and microaneurysms in the eyes (diabetic rats; [1]): reduced incidence | corporal weight loss (diabetic rats; in comparison with non-treated animals): less intense corporal weight loss

N=C(N)NCCC[C@H](N)C(=O)O [L-Arginine]
excretion of orotic acid in the urine (rats): less excretion of orotic acid in the urine | kidney hypertrophy (rats; long-term consequence of a protein rich regimen): can prevent kidney hypertrophy

NCCS(=O)(=O)O [L-Taurine]
renal functionality (diabetic rats): beneficial effects on renal functionality
